BigSolDB 2.1

Cc1c(-c2ccccc2)oc2c(C(=O)O)cccc2c1=O
solubility (mole fraction)
Conditions | in DMF | in THF | in acetone | in acetonitrile | in ethanol | in ethyl acetate | in isobutanol | in methanol | in methyl acetate | in n-butyl acetate
278.15 K | 0.0129 | 0.013 | 0.0019 | 0.000211 | 0.00108 | 0.00088 | 0.000942 | 0.000344 | 0.000929 | 0.000947
283.15 K | 0.0165 | 0.0154 | 0.00219 | 0.000247 | 0.00128 | 0.00114 | 0.00118 | 0.000449 | 0.00112 | 0.0011
288.15 K | 0.0213 | 0.0183 | 0.00259 | 0.00031 | 0.00153 | 0.00141 | 0.00143 | 0.000587 | 0.00145 | 0.00125
293.15 K | 0.0259 | 0.0217 | 0.00301 | 0.00037 | 0.00181 | 0.00178 | 0.00175 | 0.000767 | 0.0019 | 0.00141
298.15 K | 0.0321 | 0.0261 | 0.0034 | 0.000458 | 0.00216 | 0.00221 | 0.00214 | 0.00102 | 0.00245 | 0.00158
303.15 K | 0.0399 | 0.0313 | 0.00381 | 0.000542 | 0.00258 | 0.00272 | 0.00261 | 0.00136 | 0.00302 | 0.00178
308.15 K | 0.0485 | 0.0371 | 0.00438 | 0.000641 | 0.00304 | 0.00341 | 0.00313 | 0.00181 | 0.00382 | 0.00197
313.15 K | 0.0587 | 0.0443 | 0.00489 | 0.000768 | 0.00363 | 0.00416 | 0.00376 | 0.00242 | 0.00473 | 0.00221
318.15 K | 0.072 | 0.0517 | 0.00546 | 0.000893 | 0.00431 | 0.00494 | 0.00458 | 0.00316 | 0.0057 | 0.00242
323.15 K | 0.0889 | 0.061 | 0.00617 | 0.00103 | 0.00512 | 0.00594 | 0.0056 | 0.00419 | 0.00673 | 0.00268
